Measured values as given in patent US20230373934A1, “ANDROGEN RECEPTOR MODULATORS AND METHODS FOR THEIR USE” (ESSA Pharma, Inc., priority 2022, published 2023).

What was measured:
androgen receptor (AR) [1] = target: T1, androgen receptor (AR) (Homo sapiens, UniProt P10275, T878A); experiment: Androgen-induced PSA-luciferase assay, Luciferase Assay A (LNCaP transiently transfected with PSA (6.1 kb)-luciferase reporter); format: cell-based; conditions: LNCaP cells, 1 h pretreatment, R1881 (1 nM) 24 h, read-out: PSA-Luc IC50 Range
T1 construct: endogenous in cells; host or cells: LNCaP
T1 sequence (P10275 1-920 T878A): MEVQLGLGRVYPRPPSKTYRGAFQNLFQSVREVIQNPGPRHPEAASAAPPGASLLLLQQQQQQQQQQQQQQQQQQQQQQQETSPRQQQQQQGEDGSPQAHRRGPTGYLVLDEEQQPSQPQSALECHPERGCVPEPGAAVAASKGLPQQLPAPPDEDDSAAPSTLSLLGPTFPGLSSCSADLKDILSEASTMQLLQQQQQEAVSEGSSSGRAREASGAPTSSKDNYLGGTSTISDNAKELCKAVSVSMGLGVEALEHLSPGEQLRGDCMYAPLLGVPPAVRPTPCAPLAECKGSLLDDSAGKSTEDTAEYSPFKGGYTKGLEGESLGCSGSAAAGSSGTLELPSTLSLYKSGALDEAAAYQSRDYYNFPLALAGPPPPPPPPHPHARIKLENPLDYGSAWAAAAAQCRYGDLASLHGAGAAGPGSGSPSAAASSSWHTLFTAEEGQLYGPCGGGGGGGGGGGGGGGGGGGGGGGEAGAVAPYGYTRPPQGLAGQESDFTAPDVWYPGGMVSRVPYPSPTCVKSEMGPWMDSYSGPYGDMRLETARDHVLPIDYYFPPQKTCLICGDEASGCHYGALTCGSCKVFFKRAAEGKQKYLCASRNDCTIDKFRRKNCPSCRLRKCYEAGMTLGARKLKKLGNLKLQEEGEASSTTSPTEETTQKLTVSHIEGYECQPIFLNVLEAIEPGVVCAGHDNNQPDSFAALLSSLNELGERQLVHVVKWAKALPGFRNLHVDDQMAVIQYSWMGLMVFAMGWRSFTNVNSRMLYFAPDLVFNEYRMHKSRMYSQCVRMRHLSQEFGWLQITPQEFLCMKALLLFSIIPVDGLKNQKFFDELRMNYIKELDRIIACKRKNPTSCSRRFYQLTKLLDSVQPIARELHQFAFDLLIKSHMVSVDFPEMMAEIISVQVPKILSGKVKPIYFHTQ
In short: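 LNCaP cells transfected 24 h with PSA (6.1 kb)-luciferase reporter, pretreated 1 h with compound, then stimulated 24 h with R1881 (1 nM). Firefly luminescence in lysates normalized to protein content; IC50 from activity relative to R1881-induced vehicle control.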

[2] = Microsomal stability assay, liver microsome half-life (human); format: in vitro ADME; conditions: pH 7.4; human liver microsomes 0.5 mg/mL + NADPH, 1 μM compound, 37° C; read-out: Liver microsome + NADPH T½ (min) Human
From the text: (§1) Microsomal Stability Assay: Microsomal stability assay is a widely used in vitro model to characterize the metabolic conversion by phase I enzymes, such as cytochrome P450 (CYP) enzymes. Since metabolism is known to be highly variable in different species, microsomal stability assay is commonly run in multiple species. Metabolic stability of testing compound can be evaluated using human, rat, mouse, or other animal liver or intestine microsomes to predict intrinsic clearance.
(§2) The assay was carried out in 96-well microtiter plates at 37° C. Reaction mixtures (25 μL) contained a final concentration of 1 μM test compound, 0.5 mg/mL liver microsomes protein, and 1 mM NADPH and/or 1 mM UDPGA (with alamethicin) in 100 mM potassium phosphate, pH 7.4 buffer with 3 mM MgCl2. The incubation was done with N=1, but duplicate incubation at each time point can be prepared if necessary. At each of the time points (for example, 0, 15, 30, and 60 minutes), 150 μL of quench solution (100% acetonitrile with 0.1% formic acid) with internal standard was transferred to each well. Besides the zero minute controls, mixtures containing the same components except the NADPH can also be prepared as the negative control. Verapamil was included as a positive control to verify assay performance. Plates were sealed, vortexed, and centrifuged at 4° C. for 15 minutes at 4000 rpm. The supernatant is transferred to fresh plates for LC/MS/MS analysis.
(§3) Summarized conditions: [Compound]=1 μM, [LM]=0.5 mg/mL, [NADPH]=1 mM and/or [UDPGA]=1 mM, Buffer=100 mM Potassium Phosphate, pH 7.4 with 3 mM MgCl2, Time=0, 15, 30, and 60 min, and Temperature=37° C.
(§4) All samples were analyzed on LC/MS/MS using an AB Sciex API 4000 instrument, coupled to a Shimadzu LC-20AD LC Pump system. Analytical samples were separated using a Waters Atlantis T3 dC18 reverse phase HPLC column (20 mm×2.1 mm) at a flow rate of 0.5 mL/min. The mobile phase consisted of 0.1% formic acid in water (solvent A) and 0.1% formic acid in 100% acetonitrile (solvent B).
(§5) The extent of metabolism is calculated as the disappearance of the test compound, compared to the 0-min time incubation. Initial rates are calculated for the compound concentration and used to determine half-life (t1/2).

[3] = Microsomal stability assay, liver microsome half-life (rat); format: in vitro ADME; conditions: pH 7.4; rat liver microsomes 0.5 mg/mL + NADPH, 1 μM compound, 37° C; read-out: Liver microsome + NADPH T½ (min) Rat
From the text: as §1, §2, §3, §4, §5

[4] = Microsomal stability assay, liver microsome half-life (mouse); format: in vitro ADME; conditions: pH 7.4; mouse liver microsomes 0.5 mg/mL + NADPH, 1 μM compound, 37° C; read-out: Liver microsome + NADPH T½ (min) Mouse
From the text: as §1, §2, §3, §4, §5

[5] = Microsomal stability assay, liver microsome half-life (dog); format: in vitro ADME; conditions: pH 7.4; dog liver microsomes 0.5 mg/mL + NADPH, 1 μM compound, 37° C; read-out: Liver microsome + NADPH T½ (min) Dog
From the text: as §1, §2, §3, §4, §5

[6] = Microsomal stability assay, liver microsome half-life (monkey); format: in vitro ADME; conditions: pH 7.4; monkey liver microsomes 0.5 mg/mL + NADPH, 1 μM compound, 37° C; read-out: Liver microsome + NADPH T½ (min) Monkey
From the text: as §1, §2, §3, §4, §5

androgen receptor (AR) [7] = target: T2, androgen receptor (AR) (Homo sapiens, UniProt P10275); experiment: Androgen-induced PSA-luciferase assay, Luciferase Assay B (cells stably expressing ARR2PB or PSA-firefly luciferase reporter, 384-well); format: cell-based; conditions: Luciferase Assay B (Compounds A186-A219 and A221-A245); stable luciferase reporter cells, 1 h pretreatment, R1881 24 h, serum-free; read-out: PSA-Luc IC50 Range
T2 sequence (P10275 1-920 T878A): T1 sequence (P10275 1-920 T878A)
Procedure: Luciferase Assay B: Cells stably expressing probasin promoter (ARR2PB) or human prostate-specific antigen (PSA)-firefly luciferase reporter were plated in poly-D-lysine-coated 384-well plates. 48 h after plating, cells were pretreated with vehicle or compounds for 1 h before adding R1881 under serum-free and phenol red-free conditions and then further incubated for 24 h. R1881 was added only for LNCaP cells. Firefly luciferase activities were determined by EnVision plate reader (Perkinemer) using the Steady-Glo Luciferase Reporter Assay System (Promega). Values were normalized to protein content. GraphPad Prism graphing software was used to calculate IC50 values. Luciferase Assay B was run for Compounds A186-A219 and A221-A245 in Table 2.
Statistical analyses were performed using GraphPad Prism (Version 6.01 for Windows; La Jolla, CA, USA). Comparisons between treatment and control groups were compared using Two-Way ANOVA with post-hoc Dunnett's and Tukey's tests. Differences were considered statistically significant at P values less than 0.05.

SMILES | IC50 (androgen receptor (AR) [1]) | half-life at 1 μM [2] | half-life at 1 μM [3] | half-life at 1 μM [4] | half-life at 1 μM [5] | half-life at 1 μM [6] | IC50 (androgen receptor (AR) [7])
CS(=O)(=O)Nc1cnc2cc(-c3ccc(Oc4cc(Cl)c(OC5CCC5)c(C#N)c4)cc3)ccc2n1 [Compound A78] | 0.5 to 2 µM | > 120 min | > 120 min | > 120 min | > 120 min | > 120 min | –
CS(=O)(=O)Nc1cnc2cc(-c3ccc(N(c4cc(Cl)c(OCCCl)c(C#N)c4)C4CC4)cc3)ccc2n1 [Compound A80, N-(6-(4-((3-chloro-4-(2-chloroethoxy)-5-cyanophenyl)(cyclopropyl)amino)phenyl)quinoxalin-2-yl)methanesulfonamide] | < 0.5 µM | > 120 min | > 120 min | 96 min | > 120 min | > 120 min | –
CN(c1ccc(-c2ccc3nc(NS(C)(=O)=O)cnc3c2)cc1)c1cc(Cl)c(OCCCl)c(C#N)c1 [Compound A81] | < 0.5 µM | > 120 min | > 120 min | > 120 min | > 120 min | > 120 min | –
CCN(c1ccc(-c2ccc3nc(NS(C)(=O)=O)cnc3c2)cc1)c1cc(Cl)c(OCCCl)c(C#N)c1 [Compound A82] | < 0.5 µM | > 120 min | > 120 min | > 120 min | > 120 min | > 120 min | –
CS(=O)(=O)Nc1cnc2cc(-c3ccc(Oc4cc(Cl)c(N5CCOCC5)c(C#N)c4)cc3)ccc2n1 [Compound A83] | 0.5 to 2 µM | > 120 min | > 120 min | > 120 min | > 120 min | > 120 min | –
CS(=O)(=O)N[C@H]1C[C@H](n2cc(-c3ccc(N(CC(F)(F)F)c4cc(Cl)c(OCCCl)c(C#N)c4)cc3)cn2)C1 [Compound A84] | 0.5 to 2 µM | 101 min | > 120 min | > 120 min | > 120 min | 100 min | –
CS(=O)(=O)NC1CN(c2cnc(-c3ccc(Oc4cc(Cl)c(OCCCl)c(C#N)c4)cc3)cn2)C1 [Compound A94] | 0.5 to 2 µM | > 120 min | > 120 min | > 120 min | > 120 min | 117 min | –
CS(=O)(=O)Nc1cnc2cc(-c3ccc(Oc4cc(Cl)c(OC5CC5)c(C#N)c4)cc3)ccc2n1 [Compound A97, N-(6-(4-(3-chloro-5-cyano-4-cyclopropoxyphenoxy)phenyl)quinoxalin-2-yl) methanesulfonamide] | 0.5 to 2 µM | > 120 min | > 120 min | > 120 min | > 120 min | > 120 min | –
CS(=O)(=O)Nc1cnc2cc(-c3ccc(Oc4cc(Cl)c(OCC(F)(F)F)c(C#N)c4)cc3)ccc2n1 [Compound A98] | 0.5 to 2 µM | > 120 min | > 120 min | > 120 min | > 120 min | > 120 min | –
[2H]C([2H])([2H])N(c1ccc(-c2ccc3nc(NS(C)(=O)=O)cnc3c2)cc1)c1cc(Cl)c(OCCCl)c(C#N)c1 [Compound A145] | 0.5 to 2 µM | > 120 min | > 120 min | > 120 min | > 120 min | > 120 min | –
CS(=O)(=O)Nc1nc2ccc(-c3ccc(Oc4cc(Cl)c(OCCCl)c(C#N)c4)cc3)cc2cc1F [Compound A157] | 0.5 to 2 µM | > 120 min | > 120 min | > 120 min | > 120 min | > 120 min | –
COc1c(Cl)cc(N(c2ccc(-c3ccc4nc(NS(C)(=O)=O)cnc4c3)cc2)C2CC2)cc1C#N [Compound A163] | < 0.5 µM | > 120 min | > 120 min | > 120 min | > 120 min | > 120 min | –
CN(c1ccc(-c2ccc3nc(NS(C)(=O)=O)cnc3c2)cc1)c1cc(Cl)c(OC2CC2)c(C#N)c1 [Compound A164, N-(6-(4-((3-chloro-5-cyano-4-cyclopropoxyphenyl)(methyl)amino)phenyl)quinoxalin-2-yl)methanesulfonamide] | 0.5 to 2 µM | > 120 min | > 120 min | > 120 min | > 120 min | > 120 min | –
CS(=O)(=O)Nc1cnc2cc(-c3ccc(N(c4cc(Cl)c(OC5CC5)c(C#N)c4)C4CC4)cc3)ccc2n1 [Compound A177] | 0.5 to 2 µM | > 120 min | > 120 min | > 120 min | > 120 min | > 120 min | –
CS(=O)(=O)Nc1cnc2cc(-c3ccc(N(CC(F)(F)F)c4cc(Cl)c(OC5CC5)c(C#N)c4)cc3)ccc2n1 [Compound A186, N-(6-(4-((3-chloro-5-cyano-4-cyclopropoxyphenyl) (2,2,2-trifluoroethyl)amino)phenyl)quinoxalin-2-yl)methanesulfonamide] | – | > 120 min | > 120 min | > 120 min | > 120 min | > 120 min | < 0.5 µM
